From paper PMC10299677, “Fluorinated Benzofuran and Dihydrobenzofuran as Anti-Inflammatory and Potential Anticancer Agents” (International Journal of Molecular Sciences, 2023)
Entries after “also recorded” stand apart in the source; their conditions may differ.

Key:
IL-6 = IL-6 release in LPS-treated macrophages (BMDM); type: cell-based, C57BL/6J mice; conditions: for decrease of IL-6 production: 50 µM, LPS 24 h; for IC50: Mus musculus, Macrophage, compounds 30 min prior to 10 ng/mL LPS for 24 h
Method: C57BL/6J (10–15 weeks old) male mice were obtained from the animal care facility at the American University of Beirut. All animal procedures were performed following the recommendations of the IACUC (Institutional Animal Care and Use Committee approval 16-09-M379). BMDMs were prepared and characterized as described previously by our group. BMDMs were isolated from C57BL/6J mice by flushing the femur and tibia with RPMI-1640 culture media (Sigma-Aldrich R7388), and cells were collected and centrifuged at 300× g for 5 min. The supernatant was discarded, and the pellet was resuspended in 2 mL red blood lysis 10% (Sigma-Aldrich R7767) medium in PBS and incubated for 5 min at room temperature. After diluting the suspension of cells with 5 mL of RPMI containing 10% FBS and 1% penicillin–streptomycin, cells were centrifuged at 300× g for 5 min, and the cell pellet was resuspended in RPMI media containing 10% FBS supplemented with 15% L929-conditioned medium containing macrophage-colony stimulating factor (M-CSF1) and plated on […]. Cells were allowed to proliferate and differentiate for 5–6 days. Cells were harvested, washed, and allowed to adhere overnight in RPMI containing 10% FBS for treatment. Cells were previously characterized by flow cytometry as macrophages using this method. […] Cells were plated at 0.8 × 10^6 cells per 3.8 cm^2 well [27].
BMDMs were then treated with different concentrations of the benzofuran and dihydrobenzofuran derivatives for 30 min prior to the addition of 10 ng/mL LPS for 24 h. […] The supernatants were assessed for IL-6, PGE2, CCL2, and nitrite, the stable derivative of NO, as described previously.
(§1) IL-6, CCL2, nitrite (for NO), and PGE2 concentrations from 3–5 independent experiments were expressed as percentage of LPS alone and as mean ± SEM. COX activity was determined as percentage of PGE2 produced from exogenous arachidonic acid. Curve fitting and calculation of IC50 values were performed using GraphPad Prism (version 9.5.1 Software, La Jolla, CA, USA).

COX-1 = target: T1, COX-1 (Homo sapiens, UniProt P23219); test: COX-1 activity: PGE2 from exogenous arachidonic acid in HEK-293 cells overexpressing COX-1; type: cell-based; conditions: for effect on COX-1 activity: 10 µM for compounds 1, 7, 9, 50 µM for others, 10 µM arachidonic acid; for IC50: HEK-293 overexpressing COX-1, compounds 30 min prior to 10 µM arachidonic acid
T1 construct: expressed in transfected cells
Method: Figure 3 Effects of the fluorinated benzofuran and dihydrobenzofuran on COX-1 and COX-2 activities. (A) Illustration for COX-1 activity assay. HEK-293 cells stably overexpressing COX-1 are treated with the nine derivatives of benzofuran at concentrations of only 10 µM for compounds 1, 7, and 9, and 50 µM for the other compounds, 30 min prior to the addition of 10 µM arachidonic acid (AA). […] (B) COX-1 activity. […] Levels of PGE2 were very low in the absence of arachidonic acid (0.04 ± 0.01 ng/mL) and 104.3 ± 16.7 ng/mL for 10 µM AA. (C) Illustration for COX-2 activity determination. Macrophages are treated with 10 µM of aspirin (ASA) for 30 min to block basal COX activity, washed, and treated with 10 ng/mL LPS for 24 h to induce COX-2. Cells are then washed and incubated 30 min with 50 µM of the different compounds prior to the addition of 10 µM of AA. The produced PGE2 mainly reflects COX-2 activity. (D) COX-2 activity. Percentage of LPS-treated cells was calculated, and data are represented as mean ± SEM (n = 4); * p < 0.05 versus AA for COX-1 activity, and versus LPS + ASA + AA for COX-2 activity (one-way ANOVA followed by Dunnett’s test). […] Levels of PGE2 were very low in the absence of arachidonic acid (0.06 ± 0.01 ng/mL) and 71.7 ± 5.7 ng/mL for 10 µM AA.
COX-1 and COX-2 activities were performed as described previously in human embryonic kidney cell line (HEK-293) stably overexpressing COX-1 [19] and in macrophages, respectively. […] For both COX-1 and COX-2 assays, the benzofuran compounds were then added to the cells for 30 min prior to the incubation with 10 µM arachidonic acid for another 30 min. PGE2 was then measured using an enzyme immunoassay, as described previously.
as §1

COX-2 = target: T2, COX-2 (Mus musculus, UniProt Q05769); test: COX-2 activity: PGE2 from exogenous arachidonic acid in aspirin-pretreated, 24 h LPS-treated macrophages; type: cell-based, C57BL/6J mice; conditions: 10 µM arachidonic acid; for effect on COX-2 activity: 50 µM, aspirin-pretreated LPS-treated macrophages; for IC50: aspirin-pretreated, 24 h LPS-treated macrophages
T2 construct: prior to the addition of LPS for 24 h to induce COX-2; endogenous in cells; host or cells: Bone marrow-derived macrophages from C57BL/6J mice, aspirin-pretreated, then LPS 24 h
T2 sequence (Q05769 18-604): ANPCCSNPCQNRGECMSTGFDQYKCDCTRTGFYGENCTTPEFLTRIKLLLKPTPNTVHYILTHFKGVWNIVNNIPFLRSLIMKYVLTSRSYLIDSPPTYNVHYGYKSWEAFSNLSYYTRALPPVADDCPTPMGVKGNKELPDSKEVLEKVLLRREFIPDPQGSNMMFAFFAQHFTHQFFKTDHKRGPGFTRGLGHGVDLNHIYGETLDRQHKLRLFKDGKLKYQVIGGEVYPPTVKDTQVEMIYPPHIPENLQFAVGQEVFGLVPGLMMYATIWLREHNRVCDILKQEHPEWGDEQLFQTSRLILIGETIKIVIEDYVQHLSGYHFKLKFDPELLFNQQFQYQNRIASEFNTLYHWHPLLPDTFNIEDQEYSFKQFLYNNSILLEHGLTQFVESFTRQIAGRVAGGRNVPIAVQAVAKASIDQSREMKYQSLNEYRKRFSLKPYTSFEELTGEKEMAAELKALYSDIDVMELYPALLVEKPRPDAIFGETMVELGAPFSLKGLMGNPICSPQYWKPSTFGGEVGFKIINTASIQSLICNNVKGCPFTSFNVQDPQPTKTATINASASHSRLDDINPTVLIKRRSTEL
Method: (A) Illustration for COX-1 activity assay. […] (B) COX-1 activity. […] (C) Illustration for COX-2 activity determination. Macrophages are treated with 10 µM of aspirin (ASA) for 30 min to block basal COX activity, washed, and treated with 10 ng/mL LPS for 24 h to induce COX-2. Cells are then washed and incubated 30 min with 50 µM of the different compounds prior to the addition of 10 µM of AA. The produced PGE2 mainly reflects COX-2 activity. (D) COX-2 activity. Percentage of LPS-treated cells was calculated, and data are represented as mean ± SEM (n = 4); * p < 0.05 versus AA for COX-1 activity, and versus LPS + ASA + AA for COX-2 activity (one-way ANOVA followed by Dunnett’s test).
For both COX-1 and COX-2 assays, the benzofuran compounds were then added to the cells for 30 min prior to the incubation with 10 µM arachidonic acid for another 30 min. PGE2 was then measured using an enzyme immunoassay, as described previously.
as §1

T1 sequence (P23219 24-599): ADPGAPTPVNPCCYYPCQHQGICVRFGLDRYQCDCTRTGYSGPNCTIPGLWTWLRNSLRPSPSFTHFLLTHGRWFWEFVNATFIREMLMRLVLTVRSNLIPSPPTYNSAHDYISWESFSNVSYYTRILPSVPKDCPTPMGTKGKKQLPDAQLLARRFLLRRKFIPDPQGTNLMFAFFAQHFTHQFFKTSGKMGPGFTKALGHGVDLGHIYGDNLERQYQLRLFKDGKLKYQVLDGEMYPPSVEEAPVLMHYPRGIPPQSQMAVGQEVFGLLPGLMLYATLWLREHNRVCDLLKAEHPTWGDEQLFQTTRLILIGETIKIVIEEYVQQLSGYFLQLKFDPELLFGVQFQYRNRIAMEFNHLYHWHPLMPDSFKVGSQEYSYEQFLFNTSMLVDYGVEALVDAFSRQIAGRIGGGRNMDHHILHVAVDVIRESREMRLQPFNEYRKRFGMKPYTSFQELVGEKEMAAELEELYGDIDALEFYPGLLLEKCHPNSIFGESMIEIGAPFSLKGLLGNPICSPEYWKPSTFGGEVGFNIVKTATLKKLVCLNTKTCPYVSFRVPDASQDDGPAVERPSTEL

| Compound | IC50 (IL-6) [µM] | effect on COX-1 activity (COX-1) | IC50 (COX-1) [µM] | IC50 (COX-2) [µM] | decrease of IL-6 production (IL-6) | effect on COX-2 activity (COX-2) |
| --- | --- | --- | --- | --- | --- | --- |
| O=C(O)Cc1oc2ccc(-c3ccccc3)cc2c1F [Compound 5] | – | direct inhibitory effect | – | 28.1 | – | strongly reduced; also recorded: direct inhibitory effect |
| C=C(C)c1ccc2oc(CC(=O)O)c(F)c2c1 [Compound 6] | – | significantly reduced; also recorded: direct inhibitory effect | 5 | 13 | – | strongly reduced; also recorded: direct inhibitory effect |

Further lines, with some results ahead:

| IC50 (IL-6) [µM] | effect on COX-1 activity (COX-1) | IC50 (COX-1) [µM] | IC50 (COX-2) [µM] | Compound | decrease of IL-6 production (IL-6) | effect on COX-2 activity (COX-2) |
| --- | --- | --- | --- | --- | --- | --- |
| 1.23 | – | – | – | O=C(O)/C=C1/Oc2ccc(Br)cc2C1(F)F [Compound 2] | more than 50% | – |
| 5.21 | significantly reduced | 7.9 | – | O=C(O)/C=C1\Oc2ccc(Br)cc2C1(F)F [Compound 3] | more than 50% | slight reduction |
| 9.04 | without any effect | – | – | COC(=O)CC1(O)Oc2ccc(Br)cc2C1(F)F (stereo not drawn) [Compound 8] | more than 50% | without any effect |
